Results on 1 molecule are retold here after patent publication US20260070887A1 (Shenzhen Zhongge Biological Technology Co., Ltd., priority 2022, published 2026).

SMILES strings stand for the structures. pIC50: −log10 of the molar value.

The subject of data set [1] is OVCAR-3 cells. As to the kind of experiment: OVCAR-3 cell proliferation (Cell Titer-Glo, 10 days). The format is cell-based, human. The following applies: Homo sapiens, OVCAR-3, 240 h. The gist of the method: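 IC50 was fitted by nonlinear regression of percent inhibition versus the 0.1% DMSO control. Luminescence was read with Cell Titer-Glo after 10 days of co-culture of logarithmic-phase cells (400/well) with compound at 0.12 nM–10 μM final, in medium with 20% fetal bovine serum and 0.01 mg/mL insulin.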
A general note: Cellular ATP, detected with luciferase, serves as a proxy for viable cell number.

Data set [2] is described as follows: PK study in ICR mice. The format is in vivo, mouse. The note with it: both sexes, mouse, plasma, route and dose not given. How it is done:
6 ICR mice (male/female) were divided into two groups, administered orally and intravenously, respectively, with 3 mice/group. The mice were fasted for 10-14 hours prior to dosing with free access to water.
The test compound was weighed according to the administration dose, and prepared into a dose formulation at appropriate concentrations (for rats and mice, intravenous and oral administration at a volume of 5 mL/kg and 10 mL/kg, respectively), wherein the intravenous injection was a clear solution, and the oral preparation was a clear solution or a homogeneous suspension.
Animals were dosed by intravenous injection and oral gavage, and blood samples were collected at 0.033, 0.083, 0.25, 0.5, 1, 2, 4, 8, and 24 h after intravenous administration and 0.083, 0.25, 0.5, 1, 2, 4, 6, 8, and 24 h after oral administration. Whole blood was centrifuged at 6800 g for 6 min at 4° C. and the top plasma was stored in a −80° C. freezer for later analysis.
The DMSO stock solution of the test compound was diluted into a series of working solutions with a methanol or an acetonitrile solution, and added to a blank plasma matrix, and standard curves were generated and quality control samples were prepared. An appropriate volume of the plasma sample was taken and a suitable multiple of methanol or acetonitrile containing an internal standard was added for protein precipitation based on the response. After centrifugation of all samples at 18000 g for 10 min at 4° C., an appropriate amount of supernatant was taken for LC-MS/MS injection analysis.
Drug concentration-time curves in plasma were plotted according to test concentrations, and pharmacokinetic parameters were calculated using noncompartmental analysis by WinNonlin software, including: half-life (T½), area under the concentration-time curve from time zero to time t (AUCO-t), clearance (CL), volume of distribution at steady state (Vss) and bioavailability (F), with some of the test results shown in Table 4.

Data set [3] concerns the target hERG channel (Homo sapiens (Human), UniProt Q12809). As to the kind of experiment: hERG manual patch clamp test. The format is cell-based. How it is done: The cells used in this test were the HEK293 cell line transfected with hERG cDNA and stably expressing the hERG channel (#60187, supplied by BPS, passages P3-P23 for experimental studies). The cells were cultured in a medium containing the following components: MEM medium containing 10% (v/v) inactivated fetal calf serum, 1 mM sodium pyruvate, 500 μg/ml geneticin, 0.1 mM non-essential amino acids, and 100 U/m1 penicillin/streptomycin. HEK293 hERG cells were grown in a culture dish containing the above-mentioned medium, cultured in a 37° C., 5% CO2 incubator, and passaged approximately three times per week, with the cell fusion rate between 40% and 80%. 24 to 48 hours prior to electrophysiological experiments, HEK293 hERG cells were transferred to 0.05 mg/ml PDL-pretreated slides, seeded at a density of 1×10^4 cells per well in a 48-well plate, and grown in the same medium and under the same culture conditions. The density of HEK293 hERG cells on each circular slide needs to reach the requirement that most cells are independent and individual. The extracellular fluid components used in the hERG assay were as follows (mM): 145 NaCl, 4 KCl, 2 CaCl2, 1 MgCl2, 10 glucose, and 10 HEPES (pH adjusted to 7.40 with NaOH). The intracellular fluid components were as follows (mM): 130 KCl, 2 MgCl2, 5 EGTA, 10 HEPES and 5 Na2ATP (pH adjusted to 7.25 with KOH). […] Prior to the experiment, the compound was first serially diluted with DMSO to prepare stock solutions at 10, 3, 1, 0.3, and 0.1 mM, which were then further diluted with extracellular fluid to achieve the final test concentrations (in μM). The final concentration of DMSO in compound solutions at various concentrations was between 0.1% and 0.3%. All compound solutions are routinely sonicated for 5 to 10 min and shaken sufficiently to ensure complete dissolution of the compound, and all test solutions are mixed well by rotation for at least 10 min.
Electrophysiological tests were performed using a manual patch clamp system (HEKA EPC-10 signal amplifier and digital conversion system, HEKA Electronics, Germany) for the recording of whole cell currents. The specific test method was described as follows: Circular slides with […] hERG cells growing on the surface were placed in an electrophysiological recording chamber under an inverted microscope. The recording chamber was continuously perfused with extracellular fluid (at approximately 1 mL/min). The conventional whole-cell patch-clamp technique was employed for current recordings throughout the experiment. If not specified, the experiments were carried out at normal room temperature (about 25° C.). The cells were clamped at −80 mV. The cell clamp voltage was depolarized to +30 mV to activate the hERG potassium channel, and then clamped to −50 mV after 5 seconds to eliminate inactivation and produce a tail current. The peak tail current value was used as a value for the magnitude of the hERG current. The potassium current of hERG recorded in the above steps was stabilized by continuous extracellular fluid perfusion in the recording chamber, and the drug to be tested was continuously perfused until the inhibitory effect of the drug on hERG currents had stabilized. The coincidence of the most recent three consecutive current recording traces was typically taken as the criteria for determining whether steady-state conditions were achieved.
Dose-response curves of the test compounds were plotted with % hERG inhibition rate as the y-axis and test compound concentration as the x-axis, to calculate the IC50 values.
Background: hERG is a cardiac potassium channel; its block is linked to QT prolongation.

Chain of hERG channel (Q12809 whole entry, the tested form may be a part): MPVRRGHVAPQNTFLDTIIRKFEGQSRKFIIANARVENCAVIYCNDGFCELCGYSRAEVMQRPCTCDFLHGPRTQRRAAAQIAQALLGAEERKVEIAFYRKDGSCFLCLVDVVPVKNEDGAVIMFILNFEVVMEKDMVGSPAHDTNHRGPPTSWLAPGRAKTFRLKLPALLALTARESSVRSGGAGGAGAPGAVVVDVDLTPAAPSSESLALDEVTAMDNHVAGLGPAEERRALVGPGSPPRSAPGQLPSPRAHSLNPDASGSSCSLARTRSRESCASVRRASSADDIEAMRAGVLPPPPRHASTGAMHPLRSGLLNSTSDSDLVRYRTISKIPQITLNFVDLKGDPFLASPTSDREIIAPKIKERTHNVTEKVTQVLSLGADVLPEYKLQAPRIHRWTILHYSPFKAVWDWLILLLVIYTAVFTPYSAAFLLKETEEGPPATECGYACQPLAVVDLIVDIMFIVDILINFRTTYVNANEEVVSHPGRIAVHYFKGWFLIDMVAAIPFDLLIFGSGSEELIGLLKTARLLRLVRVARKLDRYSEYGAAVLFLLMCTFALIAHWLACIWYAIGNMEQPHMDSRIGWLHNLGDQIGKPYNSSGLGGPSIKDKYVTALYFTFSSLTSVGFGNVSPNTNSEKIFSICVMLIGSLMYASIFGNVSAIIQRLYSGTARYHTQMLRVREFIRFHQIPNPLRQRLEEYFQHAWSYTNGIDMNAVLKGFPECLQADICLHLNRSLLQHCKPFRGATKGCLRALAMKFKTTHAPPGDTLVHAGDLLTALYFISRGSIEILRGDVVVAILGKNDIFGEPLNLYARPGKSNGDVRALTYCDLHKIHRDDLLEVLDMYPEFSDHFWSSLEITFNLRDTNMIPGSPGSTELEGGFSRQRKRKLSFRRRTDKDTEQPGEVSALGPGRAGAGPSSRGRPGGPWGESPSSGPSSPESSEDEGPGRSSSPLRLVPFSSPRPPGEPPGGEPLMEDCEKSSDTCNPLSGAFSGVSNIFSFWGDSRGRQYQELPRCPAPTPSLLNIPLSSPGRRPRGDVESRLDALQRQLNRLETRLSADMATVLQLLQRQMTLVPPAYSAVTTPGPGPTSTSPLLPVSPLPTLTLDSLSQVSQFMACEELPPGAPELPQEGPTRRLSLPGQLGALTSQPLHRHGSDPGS

`COc1ccc(NC(=O)c2ccc(NS(=O)(=O)CCO)cc2N2CCC3(CC2)CC3)c2cc3n(c12)CCC(F)(F)C3` [Example 478, N-(8,8-difluoro-4-methoxy-6,7,8,9-tetrahydropyridino[1,2-a]indol-1-yl)-4-(2-hydroxyethylsulfonamido)-2-(6-azaspiro[2.5]octan-6-yl)benzamide]: the figures for the negative logarithm of the IC50 (pIC50) in data set [1] and in data set [3] were no less than 7.30 and 5.10, respectively. Also, the AUC in data set [2] (read-out: AUC) amounted to 48500 ng·h/mL. Further, in data set [2] (read-out: Cmax), the Cmax stood at 6020 ng/mL.

What is called pIC50 is −log10 of the IC50, conventionally taken in molar units. Low values mean a high IC50, high ones a low IC50. As a reminder, the AUC is the area under the concentration-time curve, a measure of exposure. What is called Cmax is the maximum level reached in the sampled fluid or tissue.
